From patent publication US10633348B2, “Methods to treat lymphoplasmacytic lymphoma” (Dana-Farber Cancer Institute, Inc., priority 2013, dated 2020)
Where two headings read alike, the source gives them in different places.

Tests used:
Assay type in all cases: cell-based
p38d, p38g = assay: KiNativ kinase profiling in A375 cells; settings: Lys2, SEQ ID NO 130, 1.0 μM
[1] = tested on: ZC1/HGK, ZC2/TNIK, ZC3/MINK; assay: KiNativ kinase profiling in A375 cells; settings: Lys2, SEQ ID NO 198, 1.0 μM
MAP2K4 = tested on: MAP2K4
SYK = tested on: SYK
IRAK4 = tested on: IRAK4
[2] = tested on: RSK1 domain1, RSK2 domain1, RSK3 domain1; assay: KiNativ kinase profiling in A375 cells; settings: Lys2, SEQ ID NO 165, 1.0 μM
DGKH = tested on: DGKH
MLK3 = tested on: MLK3
FGR = tested on: FGR
CASK = tested on: CASK
CAMK2D = tested on: CAMK2D
TLK1 = tested on: TLK1
PKN1 = tested on: PKN1
IKKa = tested on: IKKa
ATR = tested on: ATR
TAO1, TAO3 = assay: KiNativ kinase profiling in A375 cells; settings: Lys2, SEQ ID NO 182, 1.0 μM
CDK6 = tested on: CDK6
RSK4 domain1 = tested on: RSK4 domain1
NEK6, NEK7 = assay: KiNativ kinase profiling in A375 cells; settings: Lys2, SEQ ID NO 122, 1.0 μM
BARK1 = tested on: BARK1
PCTAIRE1 = tested on: PCTAIRE1
ILK = tested on: ILK
MARK3 = tested on: MARK3
CDK7 = tested on: CDK7
MARK2, MARK3 = assay: KiNativ kinase profiling in A375 cells; settings: Lys2, SEQ ID NO 92, 1.0 μM
PRPK = tested on: PRPK
ZAP70 = tested on: ZAP70
CDK9 = tested on: CDK9
WEE1 = tested on: WEE1
RSKL1 = tested on: RSKL1
JNK1, JNK2, JNK3 = assay: KiNativ kinase profiling in A375 cells; settings: Lys2, SEQ ID NO 67, 1.0 μM
CDK2 = tested on: CDK2
AMPKa1, AMPKa2 = assay: KiNativ kinase profiling in A375 cells; settings: Lys2, SEQ ID NO 4, 1.0 μM
NEK2 = tested on: NEK2
MSK1 domain1 = tested on: MSK1 domain1
LCK = tested on: LCK
MAP3K2 = tested on: MAP3K2
PKD2 = tested on: PKD2
CHK2 = tested on: CHK2
FRAP = tested on: FRAP
MST3 = tested on: MST3
IRE1 = tested on: IRE1
TEC = tested on: TEC
DNAPK = tested on: DNAPK
MLK4 = tested on: MLK4
MAP2K3 = tested on: MAP2K3
MST4 = tested on: MST4
NEK9 = tested on: NEK9
Hck-pY410 = assay: PhosFlow; settings: BCWM.1, Hck-wt and Hck-mu BCWM.1 cells; 0.5 μM and 0.1 μM

CCN1CCN(Cc2ccc(NC(=O)c3ccc(C)c(Oc4cc(N)ncn4)c3)cc2C(F)(F)F)CC1 [(A-4), 3-((6-aminopyrimidin-4-yl)oxy)-N-(4-((4-ethylpiperazin-1-yl)methyl)-3-(trifluoromethyl)phenyl)-4-methylbenzamide]
inhibition of kinase labeling (p38d, p38g): 62.5%
inhibition of kinase labeling [1]: 19.2%
inhibition of kinase labeling (MAP2K4): −14.1%
inhibition of kinase labeling (SYK): 17.4%
inhibition of kinase labeling (IRAK4): 1.9%
inhibition of kinase labeling [2]: −17.7%
inhibition of kinase labeling (DGKH): −6.3%
inhibition of kinase labeling (MLK3): 20.7%
inhibition of kinase labeling (FGR): 31.9%
inhibition of kinase labeling (CASK): −28.1%
inhibition of kinase labeling (CAMK2D): −8.1%
inhibition of kinase labeling (TLK1): 4.9%
inhibition of kinase labeling (PKN1): −32.1%
inhibition of kinase labeling (IKKa): −17.0%
inhibition of kinase labeling (ATR): 23.0%
inhibition of kinase labeling (TAO1, TAO3): 76.5%
inhibition of kinase labeling (CDK6): 13.1%
inhibition of kinase labeling (RSK4 domain1): 27.6%
inhibition of kinase labeling (NEK6, NEK7): −12.5%
inhibition of kinase labeling (BARK1): −13.4%
inhibition of kinase labeling (PCTAIRE1): −3.5%
inhibition of kinase labeling (ILK): 5.2%
inhibition of kinase labeling (MARK3): −26.1%
inhibition of kinase labeling (CDK7): 3.9%
inhibition of kinase labeling (MARK2, MARK3): 4.6%
inhibition of kinase labeling (PRPK): −13.7%
inhibition of kinase labeling (ZAP70): 49.2%
inhibition of kinase labeling (CDK9): −16.2%
inhibition of kinase labeling (WEE1): 23.2%
inhibition of kinase labeling (RSKL1): 31.5%
inhibition of kinase labeling (JNK1, JNK2, JNK3): 77.2%
inhibition of kinase labeling (CDK2): −3.5%
inhibition of kinase labeling (AMPKa1, AMPKa2): 16.3%
inhibition of kinase labeling (NEK2): −22.7%
inhibition of kinase labeling (MSK1 domain1): 5.7%
inhibition of kinase labeling (LCK): 92.3%
inhibition of kinase labeling (MAP3K2): 4.2%
inhibition of kinase labeling (PKD2): −6.9%
inhibition of kinase labeling (CHK2): −7.8%
inhibition of kinase labeling (FRAP): −7.5%
inhibition of kinase labeling (MST3): −3.7%
inhibition of kinase labeling (IRE1): −2.2%
inhibition of kinase labeling (TEC): −12.8%
inhibition of kinase labeling (DNAPK; ATP site peptide SEQ ID NO 37): −61.5%
inhibition of kinase labeling (DNAPK; ATP site peptide SEQ ID NO 38): −64.6%
inhibition of kinase labeling (MLK4): −1.7%
inhibition of kinase labeling (MAP2K3): −1.0%
inhibition of kinase labeling (MST4): 6.2%
inhibition of kinase labeling (NEK9): −1.2%

CCN1CCN(Cc2ccc(NC(=O)c3ccc(C)c(Oc4ccnc(Nc5cnn(C)c5)n4)c3)cc2C(F)(F)F)CC1 [(A-14), N-(4-((4-ethylpiperazin-1-yl)methyl)-3-(trifluoromethyl)phenyl)-4-methyl-3-((2-((1-methyl-1H-pyrazol-4-yl)amino)pyrimidin-4-yl)oxy)benzamide]
Hck phosphorylation (Hck-pY410): inhibit
